Measured values from patent publication US20250296959A1, “B7-H3 TARGETING PEPTIDES AND CONSTRUCTS THEREOF” (Mariana Oncology Inc., priority 2024, published 2025).
Starred links: 1 amine or outer side, 2 acyl side, 3 side chain; linkers in the order of their positions; H or OH if unused. Positions of bridges follow the written chain, without caps; N, C: chain ends. Non-standard residues stand in square brackets, D forms with d. Residues, ends and D or L forms follow the SMILES beside them. *: point of attachment. X6 = CSCC[C@H](NC(=O)c1ccc(CNC(=O)CN2CCN(CC(=O)O)CCN(CC(=O)O)CCN(CC(=O)O)CC2)cc1)C(=O)N[C@H](C(=O)N[C@@H](CCCCN*)C(=O)O)C(C)C; Ala(piperidin-4-yl) = O=C([C@H](CC1CCN([*:3])CC1)N[*:1])[*:2]; DOTA = O=C(O)CN1CCN(CC(=O)O)CCN(CC(=O)*)CCN(CC(=O)O)CC1; Trp(5-F) = N[C@@H](Cc1c[nH]c2ccc(F)cc12)C(=O)O; X1 = C[C@@H](c1ccccc1)[C@H](N[*:1])C(=O)[*:2]; Ala(4-THP) = N[C@@H](CC1CCOCC1)C(=O)O; Val(3-OH) = CC(C)(O)[C@H](N)C(=O)O; pGlu = O=C1CC[C@@H](C(=O)O)N1; Tle = CC(C)(C)[C@H](N)C(=O)O; hLeu = CC(C)CC[C@H](N)C(=O)O

What follows are compounds tested against T1, human 4lg B7-H3 (Homo sapiens, UniProt Q5ZPR3) (assay: Affinity determination by surface plasmon resonance (SPR) to 4Ig B7-H3). Settings: SPR KD—37° C., 4Ig B7-H3; 37° C. flow cell temperature.
T1 sequence (Q5ZPR3 29-534): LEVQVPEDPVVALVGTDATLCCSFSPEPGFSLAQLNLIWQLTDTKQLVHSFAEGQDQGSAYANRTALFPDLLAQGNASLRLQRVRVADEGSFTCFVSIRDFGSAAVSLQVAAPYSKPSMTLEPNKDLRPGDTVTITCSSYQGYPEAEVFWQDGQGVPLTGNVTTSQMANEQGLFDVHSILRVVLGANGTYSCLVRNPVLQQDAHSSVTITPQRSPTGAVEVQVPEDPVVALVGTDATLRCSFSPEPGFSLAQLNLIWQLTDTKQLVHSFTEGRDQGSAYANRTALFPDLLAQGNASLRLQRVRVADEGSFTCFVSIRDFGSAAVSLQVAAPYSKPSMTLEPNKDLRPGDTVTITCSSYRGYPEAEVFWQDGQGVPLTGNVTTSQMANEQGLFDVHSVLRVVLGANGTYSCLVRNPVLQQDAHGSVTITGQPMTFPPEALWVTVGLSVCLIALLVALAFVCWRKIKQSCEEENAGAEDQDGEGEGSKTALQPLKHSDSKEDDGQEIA
For CC(C)CC[C@H](NC(=O)[C@@H]1CCC(=O)N1)C(=O)N[C@@H](Cc1ccc(O)cc1)C(=O)N[C@H]1CSSC[C@@H](C(=O)N[C@@H](Cc2c[nH]c3ccc(F)cc23)C(=O)N[C@@H](Cc2ccccc2)C(=O)N[C@H](C(=O)N[C@H](CCCCNC(=O)CN2CCN(CC(=O)O)CCN(CC(=O)O)CCN(CC(=O)O)CC2)C(=O)O)C(C)(C)O)NC(=O)[C@H](Cc2ccc(O)cc2)NC(=O)[C@H](C(C)C)NC(=O)[C@H](CC(=O)O)NC(=O)[C@H](CC2CCOCC2)NC(=O)[C@H](CC2CCNCC2)NC(=O)CNC(=O)[C@H](C(C)(C)C)NC1=O [Cpd #477, Pyroglutamate-hLeu-Y-C-Tbg-G-PipAla-ThpA-D-V-Y-C-5FW-F-hydroxyVal-dLys(DOTA)-COOH] ([pGlu][hLeu]YC[Tle]G[Ala(piperidin-4-yl)][Ala(4-THP)]DVYC[Trp(5-F)]F[Val(3-OH)][dK](DOTA)-OH; disulfide 4-12), the Kd was 1 to 10 nM.
For CSCC[C@H](NC(=O)c1ccc(CNC(=O)CN2CCN(CC(=O)O)CCN(CC(=O)O)CCN(CC(=O)O)CC2)cc1)C(=O)N[C@H](C(=O)N[C@@H](CCCCNC(=O)[C@@H](NC(=O)[C@H](Cc1ccccc1)NC(=O)[C@H](Cc1c[nH]c2ccc(F)cc12)NC(=O)[C@@H]1CSSC[C@H](NC(=O)[C@H](Cc2ccc(O)cc2)NC(=O)[C@H](CCC(C)C)NC(C)=O)C(=O)N[C@@H](C(C)(C)C)C(=O)NCC(=O)N[C@@H](CC2CCNCC2)C(=O)N[C@@H](CC2CCOCC2)C(=O)N[C@@H](CC(=O)O)C(=O)N[C@@H](C(C)C)C(=O)N[C@@H](Cc2ccc(O)cc2)C(=O)N1)C(C)(C)O)C(=O)O)C(C)C [Cpd #482, Ac-hLeu-Y-C-Tbg-G-PipAla-ThpA-D-V-Y-C-5FW-F-hydroxyVal-εLys(Val-Met-AmBz-DOTA)-COOH] (Ac-[hLeu]YC[Tle]G[Ala(piperidin-4-yl)][Ala(4-THP)]DVYC[Trp(5-F)]F[Val(3-OH)]-X6; disulfide 3-11), the Kd was 1 to 10 nM.
Compound CSCC[C@H](NC(=O)c1ccc(CNC(=O)CN2CCN(CC(=O)O)CCN(CC(=O)O)CCN(CC(=O)O)CC2)cc1)C(=O)N[C@H](C(=O)N[C@@H](CCCCNC(=O)[C@@H](NC(=O)[C@@H](NC(=O)[C@H](Cc1c[nH]c2ccc(F)cc12)NC(=O)[C@@H]1CSSC[C@H](NC(=O)[C@H](Cc2ccc(O)cc2)NC(=O)[C@H](CCC(C)C)NC(C)=O)C(=O)N[C@@H](C(C)(C)C)C(=O)NCC(=O)N[C@@H](CC2CCNCC2)C(=O)N[C@@H](CC2CCOCC2)C(=O)N[C@@H](CC(=O)O)C(=O)N[C@@H](C(C)C)C(=O)N[C@@H](Cc2ccc(O)cc2)C(=O)N1)[C@@H](C)c1ccccc1)C(C)(C)O)C(=O)O)C(C)C [Cpd #517, Ac-hLeu-Y-C-Tbg-G-PipAla-ThpA-D-V-Y-C-5FW-[(2S, 3S)beta-Me-Phe]-hydroxyVal-&Lys(Val-Met-AmBz-DOTA)-COOH] (Ac-[hLeu]YC[Tle]G[Ala(piperidin-4-yl)][Ala(4-THP)]DVYC[Trp(5-F)][X1][Val(3-OH)]-X6; disulfide 3-11) has a Kd of less than 1 nM.
For CSCC[C@H](NC(=O)c1ccc(CNC(=O)CN2CCN(CC(=O)O)CCN(CC(=O)O)CCN(CC(=O)O)CC2)cc1)C(=O)N[C@H](C(=O)N[C@@H](CCCCNC(=O)CC[C@@H]1NC(=O)[C@H](CC2CCNCC2)NC(=O)CNC(=O)[C@H](C(C)(C)C)NC(=O)[C@@H](NC(=O)[C@H](Cc2ccc(O)cc2)NC(=O)[C@H](CCC(C)C)NC(C)=O)CSSC[C@@H](C(=O)N[C@@H](Cc2c[nH]c3ccc(F)cc23)C(=O)N[C@H](C(=O)N[C@H](C(=O)N[C@H](CO)C(=O)O)C(C)(C)O)[C@@H](C)c2ccccc2)NC(=O)[C@H](Cc2ccc(O)cc2)NC(=O)[C@H](C(C)C)NC(=O)[C@H](CC(=O)O)NC1=O)C(=O)O)C(C)C [Cpd #518, Ac-hLeu-Y-C-Tbg-G-PipAla-Glu[&Lys(OH)-Val-Met-AmBz-DOTA]-D-V-Y-C-5FW-[(2S, 3S)beta-Me-Phe]-hydroxyVal-dSer-COOH] (Ac-[hLeu]YC[Tle]G[Ala(piperidin-4-yl)]E(X6)DVYC[Trp(5-F)][X1][Val(3-OH)][dS]-OH; disulfide 3-11), the Kd was less than 1 nM.
